From patent US20090263451A1, “Anti-Inflammatory and/or Analgesic Agents for Treatment of Myofascial Pain” (Warsaw Orthopedic, Inc., priority 2008, published 2009)

Tests used:
[1] = system: Rat Chronic Constriction Injury Model; conditions: 0.02 mg/kg/day subcutaneously; vs. 45% for unloaded polymer depots; FIG. 3
Text: (§1) A 2-month chronic constriction injury (CCI) model of neuropathic pain was used to evaluate different formulations of a clonidine, encapsulated in bioerodable polymers compared to clonidine given subcutaneously (SC).
(§2) The inventors evaluated the efficacy of a five Month Clonidine/Polymer Drug Depot in the Rat Chronic Constriction Injury Model. The animal model was the Bennett Model (Wistar rat). The purpose: To determine whether a five month polymer clonidine-eluting depot can improve pain associated behavioral responses in a rat model of neuropathic pain.
(§3) Experimental Design: Four loose chromic gut ligatures, 1 mm apart, were tied around the common sciatic nerve at mid-thigh. Each animal received treatment of test or control article-according to the dosing described in Table 5.
(§4) The inventors have conducted the present study for a period of 64 days and have employed the following two tests: (1) the Hargreaves test; and (2) the von Frey test. The Hargreaves Tests of Thermal Hyperalgesia were conducted on days 7, 14, 21, 28, 35, 42, 49, 56 and 63. The von Frey monofilament test of mechanical allodynia (performed the day following Thermal testing) were conducted on days-8, 15, 22, 29, 36, 43, 50, 57 and 64.

[2] = system: Rat Chronic Constriction Injury Model; conditions: 0.02 mg/kg/day subcutaneously; compared to unloaded polymer depots; FIG. 4
Text: as §1, §2, §3, §4

Clc1cccc(Cl)c1N=C1NCCN1 [clonidine, 2,6-dichloro-N-2-imidazolidinyldenebenzenamine]
pain behavioral response (percentage of baseline), thermal hyperalgesia [1]: 58%
pain behavioral response (percentage of baseline), mechanical allodynia [2]: reduced the behavioral response
